# Laboratory results taken from patent US8952005B2, “Substituted 1,3-benzothiazol-2(3H)-ones and [1,3]thiazolo[5,4-B]pyridin-2(1H)-ones as positive allosteric modulators of mGluR2” (Merck Sharp & Dohme Corp., priority 2010, dated 2015).
# pEC50: −log10 of the molar value.
# Target: T1, recombinant human mGluR2 (Homo sapiens, UniProt Q14416)
# T1 construct: expressed in transfected cells
# Experiment: FLIPR Ca2+ mobilization assay, potentiation of glutamate response at mGluR2
# Format: cell-based
# Details: potentiation after addition of EC20 concentration of glutamate (900 nM); CHO dhfr- cells expressing human mGluR2 and Gα16
# Procedure: Inhibition constants are determined as follows. The compounds of the present invention may be tested in a fluorescence laser imaging plate reader (FLIPR) based assay. This assay is a common functional assay to monitor Ca^2+ mobilization in whole cells expressing recombinant receptor coupled with a promiscuous G-protein. CHO dhfr− cells stably expressing recombinant human mGluR2 and Gα16 loaded with Fluo-4 AM (Invitrogen, Carlsbad Calif.) are treated with dose responses of compounds and the Ca^2+ response is monitored on a FLIPR384 (Molecular Devices, Sunnydale Calif.) for agonist activity. The potentiation response is monitored after a subsequent addition of an EC20 concentration of glutamate (900 nM). The maximum calcium response at each concentration of compound for agonist or potentiation are plotted as dose responses and the curves are fitted with a four parameters logistic equation giving EC50 and Hill coefficient using the iterative non linear curve fitting software program.
# T1 sequence (Q14416 19-872): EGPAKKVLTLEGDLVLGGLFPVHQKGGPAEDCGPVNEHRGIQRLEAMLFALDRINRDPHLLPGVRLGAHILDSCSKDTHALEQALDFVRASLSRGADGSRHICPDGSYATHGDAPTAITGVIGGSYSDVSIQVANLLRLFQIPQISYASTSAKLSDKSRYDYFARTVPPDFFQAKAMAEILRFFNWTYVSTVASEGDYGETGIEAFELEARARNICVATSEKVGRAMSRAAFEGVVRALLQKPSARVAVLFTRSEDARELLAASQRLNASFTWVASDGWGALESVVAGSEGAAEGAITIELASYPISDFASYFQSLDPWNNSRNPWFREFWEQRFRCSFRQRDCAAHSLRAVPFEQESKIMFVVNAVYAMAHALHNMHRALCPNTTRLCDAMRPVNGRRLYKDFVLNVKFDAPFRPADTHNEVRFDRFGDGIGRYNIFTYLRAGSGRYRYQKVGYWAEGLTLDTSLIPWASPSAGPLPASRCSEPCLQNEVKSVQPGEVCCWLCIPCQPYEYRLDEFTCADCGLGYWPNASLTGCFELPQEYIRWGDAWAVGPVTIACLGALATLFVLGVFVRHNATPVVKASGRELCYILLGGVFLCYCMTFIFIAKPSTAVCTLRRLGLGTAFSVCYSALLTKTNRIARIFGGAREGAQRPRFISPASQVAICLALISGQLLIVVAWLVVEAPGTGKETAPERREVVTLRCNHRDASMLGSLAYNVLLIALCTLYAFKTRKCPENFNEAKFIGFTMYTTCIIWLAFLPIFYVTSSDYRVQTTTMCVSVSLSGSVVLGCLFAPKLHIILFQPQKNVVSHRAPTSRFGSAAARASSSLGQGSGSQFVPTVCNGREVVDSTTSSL
row,Compound,pEC50
1,"O=c1sc2cc(-c3cccc(N4CCS(=O)(=O)CC4)c3)ccc2n1CC1CC1 [Example 6-16, 3-(cyclopropylmethyl)-6-[3-(1,1-dioxidothiomorpholin-4-yl)phenyl]-1,3-benzothiazol-2(3H)-one]",7.19
2,"Cc1ccc(C(C)(C)O)cc1-c1ccc2c(n1)sc(=O)n2CC1CC1(F)F (stereo not shown) [Example 2-3, 1-{[2,2-difluorocyclopropyl]methyl}-5-[5-(1-hydroxy-1-methylethyl)-2-methylphenyl][1,3]thiazolo[5,4-b]pyridin-2(1H)-one]",6.82
3,"N#Cc1cc(Oc2ccc(C#N)c(-c3ccc4c(n3)sc(=O)n4CC3CC3(F)F)c2)ccn1 (stereo not shown) [Example 16-3, 4-(4-cyano-3-{1-[(2,2-difluorocyclopropyl)methyl]-2-oxo-1,2-dihydro[1,3]thiazolo[5,4-b]pyridin-5-yl}phenoxy)pyridine-2-carbonitrile]",7.82
4,"N#Cc1ccccc1-c1ccc2c(c1)sc(=O)n2Cc1ccc(Cl)cc1F [Example 9-15, 2-[3-(4-chloro-2-fluorobenzyl)-2-oxo-2,3-dihydro-1,3-benzothiazol-6-yl]benzonitrile]",6.61
5,"CC(C)(C)Cn1c(=O)sc2nc(-c3ccccc3C#N)ccc21 [Example 3-2, 2-[1-(2,2-dimethylpropyl)-2-oxo-1,2-dihydro[1,3]thiazolo[5,4-b]pyridin-5-yl]benzonitrile]",7.47
6,"N#Cc1cccnc1Oc1ccc2c(c1)sc(=O)n2CC1CC1(F)F (stereo not shown) [Example 18-3, 2-({3-[(2,2-difluorocyclopropyl)methyl]-2-oxo-2,3-dihydro-1,3-benzothiazol-6-yl}oxy)nicotinonitrile]",6.51
7,"N#Cc1ccccc1-c1ccc2c(c1)sc(=O)n2CC1CC1(F)F (stereo not shown) [Example 5-2, 2-(3-{[2,2-difluorocyclopropyl]methyl}-2-oxo-2,3-dihydro-1,3-benzothiazol-6-yl)benzonitrile]",7.77
